PubChem BioAssay AID330 (DTP/NCI, 2004)
Toxic doses and inconclusive results are not listed. How the source made its calls: active means survival T/C of 150% or more; inactive means T/C below 125% in these data.

Tested on: P388 leukemia ip, CD2F1 mice, survival T/C
Assay: NCI In Vivo Anticancer Drug Screen. Data for tumor model P388 Leukemia (intraperitoneal) in CD2F1 (CDF1) mice
Settings: endpoint: median survival time, higher = longer survival
Outline: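 Mice carrying the transplanted tumor received test compound or vehicle. Survival was recorded in each group, and the value is the treated-group measurement divided by that of the vehicle-treated control group.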

[1] = dose: 100.0 mg/kg/injection, schedule: Q01DX001 (ip), vehicle: saline
[2] = dose: 50.0 mg/kg/injection, schedule: Q01DX009 (ip), vehicle: saline
[3] = dose: 100.0 mg/kg/injection, schedule: Q01DX009 (ip), vehicle: saline
[4] = dose: 50.0 mg/kg/injection, schedule: Q01DX005 (ip), vehicle: Klucel (hydroxypropylcellulose) (HPC)
[5] = dose: 100.0 mg/kg/injection, schedule: Q01DX005 (ip), vehicle: Klucel (hydroxypropylcellulose) (HPC)
[6] = dose: 200.0 mg/kg/injection, schedule: Q01DX005 (ip), vehicle: Klucel (hydroxypropylcellulose) (HPC)
[7] = dose: 25.0 mg/kg/injection, schedule: Q01DX009 (ip), vehicle: saline
[8] = dose: 50.0 mg/kg/injection, schedule: Q01DX009 (ip), vehicle: Klucel (hydroxypropylcellulose) (HPC)
[9] = dose: 100.0 mg/kg/injection, schedule: Q01DX009 (ip), vehicle: Klucel (hydroxypropylcellulose) (HPC)
[10] = dose: 50.0 mg/kg/injection, schedule: Q01DX005 (ip), vehicle: saline with Tween-80
[11] = dose: 100.0 mg/kg/injection, schedule: Q01DX005 (ip), vehicle: saline with Tween-80
[12] = dose: 200.0 mg/kg/injection, schedule: Q01DX005 (ip), vehicle: saline with Tween-80

Measured: T/C

CCNCCC1(C)Oc2ccccc2O1
inactive: [1] 97 % of control

CC(C)(C)N=C(CCNC1CCCCC1)Nc1cccc(C(F)(F)F)c1
inactive: dose: 25.0 mg/kg/injection, schedule: Q01DX001 (ip), vehicle: saline 98 % of control | dose: 50.0 mg/kg/injection, schedule: Q01DX001 (ip), vehicle: saline 101 % of control | dose: 100.0 mg/kg/injection, schedule: Q01DX001 (ip), vehicle: saline with Tween-80 101 % of control | [1] 113 % of control

CC(=O)CC(=O)Nc1ccc(Oc2ccccc2)cc1
inactive: dose: 100.0 mg/kg/injection, schedule: Q04DX002 (ip), vehicle: Klucel (hydroxypropylcellulose) (HPC) 100 % of control | dose: 200.0 mg/kg/injection, schedule: Q04DX002 (ip), vehicle: Klucel (hydroxypropylcellulose) (HPC) 97 % of control | dose: 400.0 mg/kg/injection, schedule: Q04DX002 (ip), vehicle: Klucel (hydroxypropylcellulose) (HPC) 96 % of control

[CH3][Ge]([c]1ccccc1)[c]1cccc2ccccc12.[CH3][Sn]([CH3])[c]1ccccc1
inactive: dose: 100.0 mg/kg/injection, schedule: Q04DX003 (ip), vehicle: saline 100 % of control | dose: 200.0 mg/kg/injection, schedule: Q04DX003 (ip), vehicle: saline 100 % of control | dose: 400.0 mg/kg/injection, schedule: Q04DX003 (ip), vehicle: saline 101 % of control

O=C(CCl)N/N=C/c1ccccc1
inactive: dose: 50.0 mg/kg/injection, schedule: Q01DX009 (ip), vehicle: saline with Tween-80 106 % of control | [2] 97 % of control | dose: 100.0 mg/kg/injection, schedule: Q01DX009 (ip), vehicle: saline with Tween-80 107 % of control | [3] 95 % of control | dose: 200.0 mg/kg/injection, schedule: Q01DX009 (ip), vehicle: saline with Tween-80 111 % of control | dose: 200.0 mg/kg/injection, schedule: Q01DX009 (ip), vehicle: saline 96 % of control

Cc1ccccc1N1CCN(C(=O)c2nc3ccccc3[nH]2)CC1
inactive: [4] 91 % of control | [5] 87 % of control | [6] 101 % of control

Clc1ccccc1OCc1cnc[nH]1
inactive: [7] 102 % of control | [2] 111 % of control | [3] 117 % of control

ClC1=CCCC(C(Br)Br)C1 (stereo not given)
inactive: [8] 99 % of control | [9] 100 % of control | dose: 200.0 mg/kg/injection, schedule: Q01DX009 (ip), vehicle: Klucel (hydroxypropylcellulose) (HPC) 102 % of control

CC12CC(C(=O)O)C3(O)CC(C)(C1)CC(C)(C2)C3 (stereo not given) (tested in a mixture with another compound)
inactive: [8] 109 % of control | [9] 118 % of control

CCN(CC)S(=O)(=O)c1ccc(-c2cc(Cl)c3cc(S(=O)(=O)F)ccc3n2)cc1
inactive: dose: 100.0 mg/kg/injection, schedule: Q04DX003 (ip), vehicle: saline with Tween-80 100 % of control | dose: 200.0 mg/kg/injection, schedule: Q04DX003 (ip), vehicle: saline with Tween-80 100 % of control | dose: 400.0 mg/kg/injection, schedule: Q04DX003 (ip), vehicle: saline with Tween-80 95 % of control

CC(C)=N/N=C1\C(OC(=O)Nc2ccccc2)=Nc2ccccc21
inactive: [10] 96 % of control | [11] 95 % of control | [12] 90 % of control

C=C(c1ccc(OC)c(OC)c1)c1nccc2cc(OC)c(OC)cc12
inactive: [4] 98 % of control | [5] 96 % of control | [6] 100 % of control

CCOC(=O)c1c(C)noc1NC
inactive: dose: 60.0 mg/kg/injection, schedule: Q01DX005 (ip), vehicle: Klucel (hydroxypropylcellulose) (HPC) 100 % of control | dose: 120.0 mg/kg/injection, schedule: Q01DX005 (ip), vehicle: Klucel (hydroxypropylcellulose) (HPC) 101 % of control | dose: 240.0 mg/kg/injection, schedule: Q01DX005 (ip), vehicle: Klucel (hydroxypropylcellulose) (HPC) 100 % of control

c1cn2cnnc2n2cnnc12
inactive: [10] 100 % of control | [11] 105 % of control | [12] 97 % of control

O=[N+]([O-])c1ccc(Cl)c(S(=O)(=O)Cl)c1
inactive: [10] 97 % of control | [11] 88 % of control | [12] 92 % of control

Nc1ccc2c(c1)Cc1cc(NC=O)ccc1-2
inactive: dose: 12.5 mg/kg/injection, schedule: Q01DX009 (ip), vehicle: saline 94 % of control | [7] 91 % of control | [2] 91 % of control | [3] 91 % of control
